{"source": "patent EP0649467B1", "about": "“SELF-STABILIZED OLIGONUCLEOTIDES AS THERAPEUTIC AGENTS” (HYBRIDON, Inc., priority 1992, dated 1994)", "key": {"HIV-1": {"test_system": "HIV-1", "assay": "Anti-HIV activity: p24 expression by ELISA in HIV-1 infected H9 lymphocytes", "format": "cell-based", "set-up": "Inhibition of p24 (%): dose or concentration left out as unconfirmed", "details": "for Inhibition of p24 (%): three days; for pIC50: Human immunodeficiency virus 1, Lymphocyte, p24 expression, positive control", "method": "H9 lymphocytes were infected with HIV-1 virions (≡0.01 - 0.1 TCID50/cell) for one hour at 37°C. After one hour, unadsorbed virions were washed and the infected cells were divided among wells of 24 well plates. To the infected cells, an appropriate concentration (from stock solution) of oligonucleotide was added to obtain the required concentration in 2 ml medium. In a positive control experiment ddC or AZT was added. The cells were then cultured for three days. At the end of three days, supernatant from the infected culture was collected and measured for p24 expression by ELISA. The level of expression of p24 was compared between oligonucleotide treated and untreated (no drug) infected cells."}, "H9 lymphocytes": {"test_system": "H9 lymphocytes", "assay": "Cytotoxicity by trypan blue dye exclusion", "format": "cell-based", "set-up": "dose or concentration left out as unconfirmed", "from_the_text": "Cytotoxicity of oligonucleotides was studied by culturing the cells with increasing concentration of oligonucleotide and by the trypan blue dye exclusion method."}, "[1]": {"details": "Experiment 1, concentration 0.04"}, "[2]": {"details": "Experiment 1, concentration 0.08"}, "[3]": {"details": "Experiment 1, concentration 0.2"}, "[4]": {"details": "Experiment 1, concentration .0016"}, "[5]": {"details": "Experiment 2, concentration 0.0016"}, "[6]": {"details": "Experiment 2, concentration 0.008"}, "[7]": {"details": "Experiment 2, concentration 0.04"}, "[8]": {"details": "Experiment 2, concentration 0.2"}}, "note": "pIC50: −log10 of the molar value. Like-named read-outs stand apart in the source and are kept apart here.", "data": [{"smiles": "Cc1cn([C@H]2C[C@H](N=[N+]=[N-])[C@@H](CO)O2)c(=O)[nH]c1=O", "note": "[AZT]", "values": [{"measurement": "Inhibition of p24 (%)", "setting": "HIV-1; [1]", "value": 73, "unit": "%"}, {"measurement": "Inhibition of p24 (%)", "setting": "HIV-1; [2]", "value": 44, "unit": "%"}, {"measurement": "Inhibition of p24 (%)", "setting": "HIV-1; [3]", "value": 90, "unit": "%"}, {"measurement": "Inhibition of p24 (%)", "setting": "HIV-1; [4]", "value": 6, "unit": "%"}, {"measurement": "Inhibition of p24 (%)", "setting": "HIV-1; [5]", "value": 6, "unit": "%"}, {"measurement": "Inhibition of p24 (%)", "setting": "HIV-1; [6]", "value": 5, "unit": "%"}, {"measurement": "Inhibition of p24 (%)", "setting": "HIV-1; [7]", "value": 65, "unit": "%"}, {"measurement": "Inhibition of p24 (%)", "setting": "HIV-1; [8]", "value": 89, "unit": "%"}, {"measurement": "pIC50", "setting": "HIV-1; Experiment 1, read-out: IC50", "value": 7.43}, {"measurement": "pIC50", "setting": "HIV-1; Experiment 2", "value": 7.00}, {"measurement": "% Cell Survival", "setting": "H9 lymphocytes; [1]", "value": 98, "unit": "%"}, {"measurement": "% Cell Survival", "setting": "H9 lymphocytes; [2]", "value": 104, "unit": "%"}, {"measurement": "% Cell Survival", "setting": "H9 lymphocytes; [3]", "value": 95, "unit": "%"}, {"measurement": "% Cell Survival", "setting": "H9 lymphocytes; [4]", "value": 108, "unit": "%"}, {"measurement": "% Cell Survival", "setting": "H9 lymphocytes; [5]", "value": 103, "unit": "%"}, {"measurement": "% Cell Survival", "setting": "H9 lymphocytes; [6]", "value": 101, "unit": "%"}, {"measurement": "% Cell Survival", "setting": "H9 lymphocytes; [7]", "value": 98, "unit": "%"}, {"measurement": "% Cell Survival", "setting": "H9 lymphocytes; [8]", "value": 93, "unit": "%"}]}]}
